Measurements reported in US11753407B2, “Compounds for treating spinal muscular atrophy” (PTC Therapeutics, Inc., priority 2012, dated 2023).

Columns and labels:
[1] = system: SMN2 minigene mRNA (SMN2-A minigene) in HEK293H cells; assay: SMN2 minigene mRNA splicing RT-qPCR assay in cultured cells; type: cell-based, human; settings: Homo sapiens, HEK293-H; concentration increasing full length SMN2 mRNA 1.5-fold relative to vehicle-treated cells; HEK293H cells with SMN2-A minigene, 24 hours, 7-point concentration data; read-out: EC1.5x for production of full length SMN2 mRNA
Summary of the method: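 HEK293H cells stably carrying the SMN2-A minigene were treated for 24 h at 37 °C with a 7-point, 3.16-fold dilution series of compound. Multiplex RT-qPCR measured exon 7-containing minigene FL mRNA against GAPDH, expressed relative to vehicle by modified ΔΔCt; the EC1.5× is the concentration giving a 1.5-fold increase.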

[2] = system: Smn protein in SMA patient fibroblast cells (GM03813); assay: Smn protein assay in cultured cells (SMN HTRF); type: cell-based, human; settings: SMA patient fibroblast cells, 48 hours; for EC1.5x for Smn protein expression: 7-point concentration curve, SMN HTRF, concentration producing 1.5 times Smn protein vs DMSO vehicle control; for maximum fold (Fold) increase of Smn protein: 7-point concentration data, fold relative to vehicle control
Summary of the method: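 SMA patient fibroblasts (5,000 cells/well, DMEM-10% FBS) were treated for 48 h at 37 °C with a 7-point, 3.16-fold dilution series in triplicate. RIPA lysates were probed by HTRF (anti-SMN d2/kryptate, overnight, room temperature), reading 665/620 nm. EC1.5× is the concentration giving 1.5-fold Smn over DMSO vehicle.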

Row | Compound | melting point | EC (1.5-fold increase) [1] [µM] | EC1.5x for Smn protein expression [2] | maximum fold (Fold) increase of Smn protein [2]
1 | Cc1nc2ccc(-c3cc(=O)n4cc(N5CCCN(C)CC5)ccc4n3)cc2s1 [Compound 254, 2-(2-methyl-1,3-benzothiazol-6-yl)-7-(4-methyl-1,4-diazepan-1-yl)-4H-pyrido[1,2-a]pyrimidin-4-one] | 158 to 160 °C | 0.1 to 0.3 | ** (an EC1.5× between >1 μM and ≤3 μM is indicated by two stars (**)) | *** (a fold increase between >1.35 and ≤1.5 is indicated by three stars (***))
2 | Cc1nc2ccc(-c3cc(=O)n4cc(N5CCN6CCC[C@H]6C5)ccc4n3)cc2s1 [Compound 255, 7-[(8aS)-hexahydropyrrolo[1,2-a]pyrazin-2(1H)-yl]-2-(2-methyl-1,3-benzothiazol-6-yl)-4H-pyrido[1,2-a]pyrimidin-4-one] | 250 to 260 °C | 0.3 to 1 | – | ** (a fold increase between >1.2 and ≤1.35 is indicated by two stars (**))
3 | Cc1nc2ccc(-c3cc(=O)n4cc(N5CCN(C)CC5)ccc4n3)cc2s1 [Compound 256, 2-(2-methyl-1,3-benzothiazol-6-yl)-7-(4-methylpiperazin-1-yl)-4H-pyrido[1,2-a]pyrimidin-4-one] | 230 to 234 °C | 0.3 to 1 | ** (an EC1.5× between >1 μM and ≤3 μM is indicated by two stars (**)) | **** (a fold increase between >1.5 and ≤1.65 is indicated by four stars (****))
4 | COc1ccc(-c2cc(=O)n3cc(N4C[C@H]5CNC[C@H]5C4)cc(C)c3n2)cc1OC [Compound 257, 2-(3,4-dimethoxyphenyl)-7-[(3aR,6aS)-hexahydropyrrolo[3,4-c]pyrrol-2(1H)-yl]-9-methyl-4H-pyrido[1,2-a]pyrimidin-4-one] | 215 °C | < 0.1 | ** (an EC1.5× between >1 μM and ≤3 μM is indicated by two stars (**)) | **** (a fold increase between >1.5 and ≤1.65 is indicated by four stars (****))
5 | Cc1cn2nc(-c3cc(=O)n4cc(N5CCN(C)[C@@H](C)C5)ccc4n3)cc2c(C)n1 [Compound 258, 7-[(3S)-3,4-dimethylpiperazin-1-yl]-2-(4,6-dimethylpyrazolo[1,5-a]pyrazin-2-yl)-4H-pyrido[1,2-a]pyrimidin-4-one] | 220 to 223 °C | < 0.1 | *** (an EC1.5× between >0.3 μM and ≤1 μM is indicated by three stars (***)) | **** (a fold increase between >1.5 and ≤1.65 is indicated by four stars (****))
6 | Cc1cn2nc(-c3cc(=O)n4cc(N5C[C@@H](C)N(C)[C@@H](C)C5)ccc4n3)cc2c(C)n1 [Compound 259, 2-(4,6-dimethylpyrazolo[1,5-a]pyrazin-2-yl)-7-[(3R,5S)-3,4,5-trimethylpiperazin-1-yl]-4H-pyrido[1,2-a]pyrimidin-4-one] | 254 to 260 °C | < 0.1 | *** (an EC1.5× between >0.3 μM and ≤1 μM is indicated by three stars (***)) | **** (a fold increase between >1.5 and ≤1.65 is indicated by four stars (****))
7 | COc1ccc(-c2cc(=O)n3cc(N4C[C@H]5CN(C)C[C@H]5C4)cc(C)c3n2)cc1OC [Compound 260, 2-(3,4-dimethoxyphenyl)-9-methyl-7-[(3aR,6aS)-5-methylhexahydropyrrolo[3,4-c]pyrrol-2(1H)-yl]-4H-pyrido[1,2-a]pyrimidin-4-one] | 212 to 218 °C | 0.1 to 0.3 | ** (an EC1.5× between >1 μM and ≤3 μM is indicated by two stars (**)) | *** (a fold increase between >1.35 and ≤1.5 is indicated by three stars (***))
8 | COc1ccc(-c2cc(=O)n3cc(N4CCC(N(C)C)CC4)cc(C)c3n2)cc1OC [Compound 261, 2-(3,4-dimethoxyphenyl)-7-[4-(dimethylamino)piperidin-1-yl]-9-methyl-4H-pyrido[1,2-a]pyrimidin-4-one] | 167 to 171 °C | < 0.1 | **** (an EC1.5x≤0.3 μM is indicated by four stars (****)) | **** (a fold increase between >1.5 and ≤1.65 is indicated by four stars (****))
9 | COc1ccc(-c2cc(=O)n3cc(C4=C[C@H]5CC[C@@H](C4)N5)ccc3n2)cc1OC [Compound 262, 7-[(1R,5S)-8-azabicyclo[3.2.1]oct-2-en-3-yl]-2-(3,4-dimethoxyphenyl)-4H-pyrido[1,2-a]pyrimidin-4-one] | 191 to 194 °C | 0.1 to 0.3 | *** (an EC1.5× between >0.3 μM and ≤1 μM is indicated by three stars (***)) | ***** (a fold increase >1.65 is indicated by five stars (*****))
10 | Cc1nc2ccc(-c3cc(=O)n4cc(N5CC[C@@H](N(C)C)C5)ccc4n3)cc2o1 [Compound 264, 7-[(3R)-3-(dimethylamino)pyrrolidin-1-yl]-2-(2-methyl-1,3-benzoxazol-6-yl)-4H-pyrido[1,2-a]pyrimidin-4-one] | 203 to 207 °C | < 0.1 | **** (an EC1.5x≤0.3 μM is indicated by four stars (****)) | ***** (a fold increase >1.65 is indicated by five stars (*****))
11 | CCc1nc2ccc(-c3cc(=O)n4cc(N5CCNCC5)ccc4n3)cc2o1 [Compound 265, 2-(2-ethyl-1,3-benzoxazol-6-yl)-7-(piperazin-1-yl)-4H-pyrido[1,2-a]pyrimidin-4-one] | 170 to 175 °C | 1 to 3 | – | *** (a fold increase between >1.35 and ≤1.5 is indicated by three stars (***))

Continued, in another order:

Row | melting point | Compound | EC (1.5-fold increase) [1] [µM] | EC1.5x for Smn protein expression [2] | maximum fold (Fold) increase of Smn protein [2]
12 | 168 to 170 °C | CCc1nc2ccc(-c3cc(=O)n4cc(N5CCN[C@@H](C)C5)ccc4n3)cc2o1 [Compound 266, 2-(2-ethyl-1,3-benzoxazol-6-yl)-7-[(3S)-3-methylpiperazin-1-yl]-4H-pyrido[1,2-a]pyrimidin-4-one] | 1 to 3 | – | ** (a fold increase between >1.2 and ≤1.35 is indicated by two stars (**))
13 | 200 to 204 °C | Cc1nc2ccc(-c3cc(=O)n4cc(N5C[C@H]6CN(C)C[C@H]6C5)ccc4n3)cc2o1 [Compound 267, 2-(2-methyl-1,3-benzoxazol-6-yl)-7-[(3aR,6aS)-5-methylhexahydropyrrolo[3,4-c]pyrrol-2(1H)-yl]-4H-pyrido[1,2-a]pyrimidin-4-one] | < 0.1 | **** (an EC1.5x≤0.3 μM is indicated by four stars (****)) | ***** (a fold increase >1.65 is indicated by five stars (*****))
14 | 308 °C (dec.) | Cc1cn2cc(-c3ccc4nc(N5CCNCC5)cc(=O)n4c3)cc(F)c2n1 [Compound 268, 7-(8-fluoro-2-methylimidazo[1,2-a]pyridin-6-yl)-2-(piperazin-1-yl)-4H-pyrido[1,2-a]pyrimidin-4-one] | < 0.1 | **** (an EC1.5x≤0.3 μM is indicated by four stars (****)) | ***** (a fold increase >1.65 is indicated by five stars (*****))
15 | 270 to 274 °C | Cc1cn2cc(-c3cc(=O)n4cc(N5CCN6CCC[C@H]6C5)ccc4n3)cc(F)c2n1 [Compound 271, 2-(8-fluoro-2-methylimidazo[1,2-a]pyridin-6-yl)-7-[(8aS)-hexahydropyrrolo[1,2-a]pyrazin-2(1H)-yl]-4H-pyrido[1,2-a]pyrimidin-4-one] | < 0.1 | **** (an EC1.5x≤0.3 μM is indicated by four stars (****)) | ***** (a fold increase >1.65 is indicated by five stars (*****))
16 | 277 to 280 °C | Cc1cn2cc(-c3cc(=O)n4cc(N5CCN6CCC[C@@H]6C5)ccc4n3)cc(F)c2n1 [Compound 272, 2-(8-fluoro-2-methylimidazo[1,2-a]pyridin-6-yl)-7-[(8aR)-hexahydropyrrolo[1,2-a]pyrazin-2(1H)-yl]-4H-pyrido[1,2-a]pyrimidin-4-one] | < 0.1 | **** (an EC1.5x≤0.3 μM is indicated by four stars (****)) | ***** (a fold increase >1.65 is indicated by five stars (*****))
17 | 300 °C (dec.) | Cc1cn2cc(-c3cc(=O)n4cc(N5CC[C@@H](N(C)C)C5)ccc4n3)cc(F)c2n1 [Compound 274, 7-[(3R)-3-(dimethylamino)pyrrolidin-1-yl]-2-(8-fluoro-2-methylimidazo[1,2-a]pyridin-6-yl)-4H-pyrido[1,2-a]pyrimidin-4-one] | < 0.1 | **** (an EC1.5x≤0.3 μM is indicated by four stars (****)) | ***** (a fold increase >1.65 is indicated by five stars (*****))
